Among the data in patent US11725036B2, “Modified lipidated relaxin B chain peptides and their therapeutic use” (Sanofi, priority 2018, dated 2023) are EC50 and Emax values, retold here.

What is called EC50 is the concentration at which the effect is half-maximal. Read a low EC50 as a more potent agent. One may read the Emax as the size of the effect at its maximum, as opposed to the concentration needed.

In the assay the target is T1, RXFP1 (Homo sapiens, UniProt Q9HBX9).
T1 construct: OVCAR5 cells expressing endogenous RXFP1; endogenous in cells; host or cells: OVCAR5
T1 sequence (Q9HBX9 1-757): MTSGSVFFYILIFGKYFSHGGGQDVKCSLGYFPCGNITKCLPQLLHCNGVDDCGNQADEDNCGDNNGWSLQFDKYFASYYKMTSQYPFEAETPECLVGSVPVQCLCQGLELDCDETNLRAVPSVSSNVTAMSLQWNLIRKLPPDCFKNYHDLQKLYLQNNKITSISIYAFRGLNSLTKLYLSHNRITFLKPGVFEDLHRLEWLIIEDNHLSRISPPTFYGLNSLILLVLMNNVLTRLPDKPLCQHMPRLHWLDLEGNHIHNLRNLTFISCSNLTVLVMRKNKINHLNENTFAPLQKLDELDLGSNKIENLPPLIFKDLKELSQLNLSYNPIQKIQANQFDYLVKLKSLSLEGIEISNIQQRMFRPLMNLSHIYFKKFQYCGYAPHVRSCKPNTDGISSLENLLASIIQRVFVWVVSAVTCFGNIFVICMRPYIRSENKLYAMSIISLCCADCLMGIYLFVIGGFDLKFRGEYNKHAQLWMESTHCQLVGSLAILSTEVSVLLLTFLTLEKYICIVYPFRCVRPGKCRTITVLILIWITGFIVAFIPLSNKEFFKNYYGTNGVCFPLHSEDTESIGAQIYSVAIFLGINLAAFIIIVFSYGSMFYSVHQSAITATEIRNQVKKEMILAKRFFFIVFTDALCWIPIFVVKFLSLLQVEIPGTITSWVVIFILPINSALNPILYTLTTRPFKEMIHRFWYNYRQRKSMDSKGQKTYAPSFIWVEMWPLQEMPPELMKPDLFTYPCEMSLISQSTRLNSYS
In words: OVCAR5 cAMP assay (HTRF). It counts as cell-based. The note with it: for EC50: OVCAR 5 cells expressing endogenous RXFP1, cAMP readout; for Emax: OVCAR 5 cells, maximal cAMP relative to H2-relaxin. In a few lines: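 Endogenous RXFP1 in OVCAR5 cells, pretreated 40 min at 37° C with 1 mM IBMX, then exposed to increasing peptide concentrations in serum-free medium for 30 min at 37° C. cAMP read by HTRF; EC50 by variable-slope sigmoidal fit, Emax as % of H2-relaxin maximal cAMP in same run.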

Starred links: 1 amine or outer side, 2 acyl side, 3 side chain; linkers in the order of their positions; H or OH if unused. Non-standard residues stand in square brackets, D forms with d. Residues, ends and D or L forms follow the SMILES beside them. Groups on a side chain read outwards from the residue. *: point of attachment. X1 = CCCCCCCCCCCCCCCC(=O)N[C@@H](CCC(=O)N[C@@H](CCC(=O)N[C@@H](CCC(=O)NCCCOCCOCCOCCCNC(=O)CCC(=O)NCCCOCCOCCOCCCNC(=O)CCC(=O)NCCCOCCOCCOCCCN*)C(=O)O)C(=O)O)C(=O)O; Trp(5-F) = N[C@@H](Cc1c[nH]c2ccc(F)cc12)C(=O)O; Phe(4-F) = N[C@@H](Cc1ccc(F)cc1)C(=O)O; Suc = O=C(CCC(=O)[*:2])[*:1]; Aib = CC(C)(N)C(=O)O

`CCCCCCCCCCCCCCCC(=O)N[C@@H](CCC(=O)N[C@@H](CCC(=O)N[C@@H](CCC(=O)NCCCOCCOCCOCCCNC(=O)CCC(=O)NCCCOCCOCCOCCCNC(=O)CCC(=O)NCCCOCCOCCOCCCNC(=O)CCC(=O)NCCCC[C@H](NC(=O)CNC(=O)[C@H](CCC(=O)O)NC(=O)C(C)(C)NC(=O)C(C)(C)NC(=O)[C@@H](NC(=O)[C@H](CCCCNC(C)=O)NC(=O)[C@H](C)NC(=O)[C@H](CCCNC(=N)N)NC(=O)[C@@H](NC(=O)[C@H](CCCNC(=N)N)NC(=O)[C@H](CCC(=O)O)NC(=O)[C@H](CCCNC(=N)N)NC(=O)CNC(=O)[C@H](CCC(=O)O)NC(=O)[C@H](CC(C)C)NC(C)=O)C(C)C)[C@@H](C)CC)C(=O)N[C@@H](CO)C(=O)N[C@H](C(=O)N[C@@H](Cc1ccc(F)cc1)C(=O)N[C@@H](CO)C(=O)NC(C)(C)C(=O)N[C@@H](CCCNC(=N)N)C(=O)N[C@@H](CCCNC(=N)N)C(=O)N[C@@H](CCCCNC(C)=O)C(N)=O)[C@@H](C)O)C(=O)O)C(=O)O)C(=O)O` [compound 91] (Ac-LEGRERVRAK(Ac)I[Aib][Aib]EGK([Suc-X1])ST[Phe(4-F)]S[Aib]RRK(Ac)-NH2) gave an EC50 of 0.09 nM and an Emax of 97%.

For `CCCCCCCCCCCCCCCC(=O)N[C@@H](CCC(=O)N[C@@H](CCC(=O)N[C@@H](CCC(=O)NCCCOCCOCCOCCCNC(=O)CCC(=O)NCCCOCCOCCOCCCNC(=O)CCC(=O)NCCCOCCOCCOCCCNC(=O)CCC(=O)NCCCC[C@H](NC(=O)CNC(=O)[C@H](CCC(=O)O)NC(=O)C(C)(C)NC(=O)C(C)(C)NC(=O)[C@@H](NC(=O)[C@H](CCCCNC(C)=O)NC(=O)[C@H](C)NC(=O)[C@H](CCCNC(=N)N)NC(=O)[C@@H](NC(=O)[C@H](CCCNC(=N)N)NC(=O)[C@H](CCC(=O)O)NC(=O)[C@H](CCCNC(=N)N)NC(=O)CNC(=O)[C@H](CCC(=O)O)NC(=O)[C@H](CC(C)C)NC(C)=O)C(C)C)[C@@H](C)CC)C(=O)N[C@@H](CO)C(=O)N[C@H](C(=O)N[C@@H](Cc1c[nH]c2ccc(F)cc12)C(=O)N[C@@H](CO)C(=O)NC(C)(C)C(=O)N[C@@H](CCCNC(=N)N)C(=O)N[C@@H](CCCNC(=N)N)C(=O)N[C@@H](CCCCNC(C)=O)C(N)=O)[C@@H](C)O)C(=O)O)C(=O)O)C(=O)O` [compound 92] (Ac-LEGRERVRAK(Ac)I[Aib][Aib]EGK([Suc-X1])ST[Trp(5-F)]S[Aib]RRK(Ac)-NH2), the EC50 came to 0.1 nM and the Emax was 99%.

The compound `CCCCCCCCCCCCCCCC(=O)N[C@@H](CCC(=O)N[C@@H](CCC(=O)N[C@@H](CCC(=O)NCCCOCCOCCOCCCNC(=O)CCC(=O)NCCCOCCOCCOCCCNC(=O)CCC(=O)NCCCOCCOCCOCCCNC(=O)CCC(=O)NCCCC[C@H](NC(=O)CNC(=O)[C@H](CCC(=O)O)NC(=O)C(C)(C)NC(=O)C(C)(C)NC(=O)[C@@H](NC(=O)[C@H](CCCCNC(C)=O)NC(=O)[C@H](C)NC(=O)[C@H](CCCNC(=N)N)NC(=O)[C@@H](NC(=O)[C@H](CCCCN)NC(=O)[C@H](CCC(=O)O)NC(=O)[C@H](CCCNC(=N)N)NC(=O)CNC(=O)[C@H](CCC(=O)O)NC(=O)[C@H](CC(C)C)NC(C)=O)C(C)C)[C@@H](C)CC)C(=O)N[C@@H](CO)C(=O)N[C@H](C(=O)N[C@@H](Cc1ccccc1)C(=O)N[C@H](C(=O)N[C@@H](CCCNC(=N)N)C(=O)N[C@@H](CCCNC(=N)N)C(=O)N[C@@H](C)C(=O)N[C@@H](CCCCNC(C)=O)C(N)=O)[C@@H](C)O)[C@@H](C)O)C(=O)O)C(=O)O)C(=O)O` [compound 93] (Ac-LEGREKVRAK(Ac)I[Aib][Aib]EGK([Suc-X1])STFTRRAK(Ac)-NH2) gave an EC50 of 0.77 nM and an Emax of 86%.
